According to patent US20200270309A1, “MALEIMIDE GROUP-MODIFIED ANGIOGENESIS INHIBITOR HM-1 AND USE THEREOF” (NANJING ANJI BIOLOGICAL TECHNOLOGY CO., LTD, priority 2017, published 2020):
Peptide text beside a SMILES is read from it. * marks the point of attachment. X65 = O=C1C=CC(=O)N1c1cccc(CCCCCCCCCCCCC(=O)*)c1; X58 = O=C1C=CC(=O)N1c1cccc(CCCCCCCCCCCC(=O)*)c1; X71 = O=C1C=CC(=O)N1c1cccc(CCCCCC(=O)*)c1

Key:
[1] = system: collagen-induced arthritis; test: Mouse collagen-induced arthritis (CIA) animal model; format: in vivo; conditions: DBA/1 mice CIA model, dose 4.0 mg/kg, subcutaneous from day 30, n=10; for Clinical score: highest score 16
HUVECs = test: Transwell migration inhibition on HUVECs; format: cell-based, human; conditions: for Inhibition rate (%): HUVEC migration vs blank control; for Cell migration number (Mean ± SD): HUVECs, transwell, 24 h
[2] = Half-lives and pharmacokinetic parameters of polypeptides vs HM-1; conditions: in vivo; for half-life: T1/2β (half-life)
splenic lymphocytes = test: Proliferation of splenic lymphocytes in mice (ConA, MTT); format: cell-based; conditions: ConA-stimulated mouse splenic lymphocytes, 48 h
Outline: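 Mouse splenocytes (5×10^6 cells/mL, RPMI 1640 with 10% calf serum, red cells lysed) stimulated with ConA plus varying polypeptide concentrations, with blank, ConA-only and Dex groups, 48 h at 37° C. MTT added for 4 h, formazan dissolved in DMSO, OD read at 570 nm; five replicates.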

[3] = system: choroidal neovascularization; test: Choroidal neovascularization in rats (laser photocoagulation, FFA); format: in vivo; conditions: BN rats
Outline: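 Male BN rats aged 6-8 weeks were given 8 krypton-laser spots around the optic disc (647.1 nm, 350 mW, 50 μm, 0.05 s). Once the model was confirmed, groups of 5 got daily intravitreal compound at 0.05 μM or saline for 1 week. FFA followed at 3, 7, 14 and 28 days after dosing.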

adjuvant arthritis = test: Rat adjuvant arthritis (AA) animal model; format: in vivo, SD rats; conditions: 4.0 mg/kg; for Clinical score: intravenous in the tail once every five days from day 10, four paws scored 0-4, max 16, mean±SD; for Joint swelling degree / Left and right paw swelling degree: intravenous in the tail once every five days from day 10, mean±SD
[4] = system: carrageenan-induced toe swelling; test: Carrageenan-induced toe swelling in rats; format: in vivo; conditions: SD rats; for Swelling degree 1 h: 1 h after carrageenan; for Swelling degree 3 h: 3 h after carrageenan; for Swelling degree 5 h: 5 h after carrageenan; for Swelling degree 7 h: 7 h after carrageenan
Outline: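 Rats dosed by injection once daily for 3 d, controls given equal-volume saline. Right hind paw volume measured by water displacement to a marked joint line; swelling degree (mL) is paw volume after carrageenan inflammation minus volume before.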

[5] = day 3 after administration, total light spot number was 297, 0.05 μM in the vitreous chamber once a day for 1 week
[6] = day 7 after administration, total light spot number was 186, 0.05 μM in the vitreous chamber once a day for 1 week
[7] = day 14 after administration, total light spot number was 137, 0.05 μM in the vitreous chamber once a day for 1 week
[8] = day 28 after administration, total light spot number was 69, 0.05 μM in the vitreous chamber once a day for 1 week

| SMILES | Joint swelling degree (mm) [1] [mm] | Left and right paw swelling degree (mm) [1] [mm] | Clinical score [1] | Inhibition rate (%) (HUVECs; dose 0.05 μM) | Inhibition rate (%) (HUVECs; dose 0.1 μM) | Inhibition rate (%) (HUVECs; dose 0.2 μM) | Cell migration number (Mean ± SD) (HUVECs; dose 0.05 μM) | Cell migration number (Mean ± SD) (HUVECs; dose 0.1 μM) | Cell migration number (Mean ± SD) (HUVECs; dose 0.2 μM) | AUC(0-inf) [2] [ng·h/mL] | MRT inf [2] [h] | clearance [2] [mL/min/kg] | half-life [2] [h] | A570 nm/A630 nm (splenic lymphocytes; polypeptide dose 0.05 μM) | Inhibition rate (%) (splenic lymphocytes; polypeptide dose 0.05 μM) | A570 nm/A630 nm (splenic lymphocytes; polypeptide dose 0.1 μM) | Inhibition rate (%) (splenic lymphocytes; polypeptide dose 0.1 μM) | A570 nm/A630 nm (splenic lymphocytes; polypeptide dose 0.2 μM) | Inhibition rate (%) (splenic lymphocytes; polypeptide dose 0.2 μM) | CNV Incidence (%) [3, 5] [%] | further results |
| --- | --- | --- | --- | --- | --- | --- | --- | --- | --- | --- | --- | --- | --- | --- | --- | --- | --- | --- | --- | --- | --- |
| C[C@H](NC(=O)CNC(=O)[C@H](CCCNC(=N)N)NC(=O)CCCCCCCCCCCCc1cccc(N2C(=O)C=CC2=O)c1)C(=O)N[C@@H](CC(=O)O)C(=O)N[C@@H](CCCNC(=N)N)C(=O)N[C@@H](C)C(=O)NCC(=O)NCC(=O)NCC(=O)NCC(=O)N[C@@H](CCCNC(=N)N)C(=O)NCC(=O)N[C@@H](CC(=O)O)C(=O)O [X36] (X65-RGADRAGGGGRGD-OH) | 0.74 ± 0.14 | 0.77 ± 0.13 | 8.86 ± 1.23 | 52.07 | 56.76 | 57.92 | 513.79 ± 55.46 | 463.47 ± 50.27 | 451.01 ± 43.85 | 28200 ± 8090 | 50.4 ± 10.1 | 0.592 | 34.9 ± 0.27 | 0.6051 ± 0.0633 | 10.41 | 0.4566 ± 0.1223 | 32.40 | 0.4401 ± 0.051 | 34.84 | 50.51 | Leakage Light spot number [3, 5]: 150; CNV Incidence (%) [3, 6]: 49.46%; Leakage Light spot number [3, 6]: 92; CNV Incidence (%) [3, 7]: 40.15%; Leakage Light spot number [3, 7]: 55; CNV Incidence (%) [3, 8]: 43.48%; Leakage Light spot number [3, 8]: 30; Clinical score (adjuvant arthritis): 5.71 ± 1.09; Joint swelling degree (adjuvant arthritis): 0.81 ± 0.12 mm; Left and right paw swelling degree (adjuvant arthritis): 4.00 ± 0.44 mm; Swelling degree 1 h ([4]; 2.0 mg/kg once a day for 3 d): 0.29 ± 0.17 mg; Swelling degree 3 h ([4]; 2.0 mg/kg once a day for 3 d): 0.34 ± 0.18 mg; Swelling degree 5 h ([4]; 2.0 mg/kg once a day for 3 d): 0.43 ± 0.13 mg; Swelling degree 7 h ([4]; 2.0 mg/kg once a day for 3 d): 0.32 ± 0.15 mg; Swelling degree 1 h ([4]; 4.0 mg/kg once a day for 3 d): 0.23 ± 0.15 mg; Swelling degree 3 h ([4]; 4.0 mg/kg once a day for 3 d): 0.33 ± 0.13 mg; Swelling degree 5 h ([4]; 4.0 mg/kg once a day for 3 d): 0.35 ± 0.12 mg; Swelling degree 7 h ([4]; 4.0 mg/kg once a day for 3 d): 0.32 ± 0.17 mg |
| C[C@H](NC(=O)CNC(=O)[C@H](CCCNC(=N)N)NC(=O)CCCCCc1cccc(N2C(=O)C=CC2=O)c1)C(=O)N[C@@H](CC(=O)O)C(=O)N[C@@H](CCCNC(=N)N)C(=O)N[C@@H](C)C(=O)NCC(=O)NCC(=O)NCC(=O)NCC(=O)N[C@@H](CCCNC(=N)N)C(=O)NCC(=O)N[C@@H](CC(=O)O)C(=O)O [X29] (X71-RGADRAGGGGRGD-OH) | 0.81 ± 0.15 | 0.71 ± 0.13 | 8.98 ± 1.44 | 46.37 | 50.43 | 53.84 | 574.88 ± 55.42 | 531.34 ± 47.59 | 494.73 ± 56.78 | 32200 ± 8030 | 57.6 ± 10.6 | 0.518 | 39.91 ± 0.25 | 0.5595 ± 0.0932 | 17.16 | 0.5284 ± 0.0661 | 21.76 | 0.5094 ± 0.1191 | 24.58 | 54.21 | Leakage Light spot number [3, 5]: 161; CNV Incidence (%) [3, 6]: 45.70%; Leakage Light spot number [3, 6]: 85; CNV Incidence (%) [3, 7]: 40.88%; Leakage Light spot number [3, 7]: 56; CNV Incidence (%) [3, 8]: 39.13%; Leakage Light spot number [3, 8]: 27; Clinical score (adjuvant arthritis): 5.72 ± 1.06; Joint swelling degree (adjuvant arthritis): 0.84 ± 0.16 mm; Left and right paw swelling degree (adjuvant arthritis): 3.72 ± 0.80 mm; Swelling degree 1 h ([4]; 2.0 mg/kg once a day for 3 d): 0.27 ± 0.16 mg; Swelling degree 3 h ([4]; 2.0 mg/kg once a day for 3 d): 0.35 ± 0.18 mg; Swelling degree 5 h ([4]; 2.0 mg/kg once a day for 3 d): 0.36 ± 0.19 mg; Swelling degree 7 h ([4]; 2.0 mg/kg once a day for 3 d): 0.33 ± 0.17 mg; Swelling degree 1 h ([4]; 4.0 mg/kg once a day for 3 d): 0.22 ± 0.12 mg; Swelling degree 3 h ([4]; 4.0 mg/kg once a day for 3 d): 0.34 ± 0.15 mg; Swelling degree 5 h ([4]; 4.0 mg/kg once a day for 3 d): 0.35 ± 0.13 mg; Swelling degree 7 h ([4]; 4.0 mg/kg once a day for 3 d): 0.32 ± 0.17 mg |
| C[C@H](NC(=O)CNC(=O)[C@H](CCCNC(=N)N)NC(=O)CCCCCCCCCCCc1cccc(N2C(=O)C=CC2=O)c1)C(=O)N[C@@H](CC(=O)O)C(=O)N[C@@H](CCCNC(=N)N)C(=O)N[C@@H](C)C(=O)NCC(=O)NCC(=O)NCC(=O)NCC(=O)N[C@@H](CCCNC(=N)N)C(=O)NCC(=O)N[C@@H](CC(=O)O)C(=O)O [X35] (X58-RGADRAGGGGRGD-OH) | 0.76 ± 0.13 | 0.85 ± 0.14 | 8.78 ± 1.23 | 42.61 | 50.57 | 56.96 | 615.18 ± 57.71 | 529.83 ± 68.02 | 461.34 ± 66.82 | 32000 ± 8090 | 57.1 ± 14.2 | 0.522 | 39.6 ± 0.31 | 0.6122 ± 0.1219 | 9.36 | 0.5261 ± 0.0617 | 22.11 | 0.4415 ± 0.0616 | 34.63 | 52.19 | Leakage Light spot number [3, 5]: 155; CNV Incidence (%) [3, 6]: 47.85%; Leakage Light spot number [3, 6]: 89; CNV Incidence (%) [3, 7]: 46.72%; Leakage Light spot number [3, 7]: 64; CNV Incidence (%) [3, 8]: 44.93%; Leakage Light spot number [3, 8]: 31; Clinical score (adjuvant arthritis): 5.83 ± 1.07; Joint swelling degree (adjuvant arthritis): 0.85 ± 0.13 mm; Left and right paw swelling degree (adjuvant arthritis): 3.78 ± 0.56 mm; Swelling degree 1 h ([4]; 2.0 mg/kg once a day for 3 d): 0.25 ± 0.11 mg; Swelling degree 3 h ([4]; 2.0 mg/kg once a day for 3 d): 0.38 ± 0.16 mg; Swelling degree 5 h ([4]; 2.0 mg/kg once a day for 3 d): 0.38 ± 0.19 mg; Swelling degree 7 h ([4]; 2.0 mg/kg once a day for 3 d): 0.33 ± 0.15 mg; Swelling degree 1 h ([4]; 4.0 mg/kg once a day for 3 d): 0.23 ± 0.11 mg; Swelling degree 3 h ([4]; 4.0 mg/kg once a day for 3 d): 0.36 ± 0.16 mg; Swelling degree 5 h ([4]; 4.0 mg/kg once a day for 3 d): 0.44 ± 0.14 mg; Swelling degree 7 h ([4]; 4.0 mg/kg once a day for 3 d): 0.32 ± 0.12 mg |
